Key:
[1] = target: T1, ATP-binding cassette sub-family C member 2 (Homo sapiens, UniProt Q92887); experiment: TP_TRANSPORTER: Western blot, HepG2 cells; type: functional, cell-based
[2] = target: T1, ATP-binding cassette sub-family C member 2; experiment: TP_TRANSPORTER: RT-PCR in HepG2 cells; type: functional, cell-based

T1 sequence (Q92887 whole entry): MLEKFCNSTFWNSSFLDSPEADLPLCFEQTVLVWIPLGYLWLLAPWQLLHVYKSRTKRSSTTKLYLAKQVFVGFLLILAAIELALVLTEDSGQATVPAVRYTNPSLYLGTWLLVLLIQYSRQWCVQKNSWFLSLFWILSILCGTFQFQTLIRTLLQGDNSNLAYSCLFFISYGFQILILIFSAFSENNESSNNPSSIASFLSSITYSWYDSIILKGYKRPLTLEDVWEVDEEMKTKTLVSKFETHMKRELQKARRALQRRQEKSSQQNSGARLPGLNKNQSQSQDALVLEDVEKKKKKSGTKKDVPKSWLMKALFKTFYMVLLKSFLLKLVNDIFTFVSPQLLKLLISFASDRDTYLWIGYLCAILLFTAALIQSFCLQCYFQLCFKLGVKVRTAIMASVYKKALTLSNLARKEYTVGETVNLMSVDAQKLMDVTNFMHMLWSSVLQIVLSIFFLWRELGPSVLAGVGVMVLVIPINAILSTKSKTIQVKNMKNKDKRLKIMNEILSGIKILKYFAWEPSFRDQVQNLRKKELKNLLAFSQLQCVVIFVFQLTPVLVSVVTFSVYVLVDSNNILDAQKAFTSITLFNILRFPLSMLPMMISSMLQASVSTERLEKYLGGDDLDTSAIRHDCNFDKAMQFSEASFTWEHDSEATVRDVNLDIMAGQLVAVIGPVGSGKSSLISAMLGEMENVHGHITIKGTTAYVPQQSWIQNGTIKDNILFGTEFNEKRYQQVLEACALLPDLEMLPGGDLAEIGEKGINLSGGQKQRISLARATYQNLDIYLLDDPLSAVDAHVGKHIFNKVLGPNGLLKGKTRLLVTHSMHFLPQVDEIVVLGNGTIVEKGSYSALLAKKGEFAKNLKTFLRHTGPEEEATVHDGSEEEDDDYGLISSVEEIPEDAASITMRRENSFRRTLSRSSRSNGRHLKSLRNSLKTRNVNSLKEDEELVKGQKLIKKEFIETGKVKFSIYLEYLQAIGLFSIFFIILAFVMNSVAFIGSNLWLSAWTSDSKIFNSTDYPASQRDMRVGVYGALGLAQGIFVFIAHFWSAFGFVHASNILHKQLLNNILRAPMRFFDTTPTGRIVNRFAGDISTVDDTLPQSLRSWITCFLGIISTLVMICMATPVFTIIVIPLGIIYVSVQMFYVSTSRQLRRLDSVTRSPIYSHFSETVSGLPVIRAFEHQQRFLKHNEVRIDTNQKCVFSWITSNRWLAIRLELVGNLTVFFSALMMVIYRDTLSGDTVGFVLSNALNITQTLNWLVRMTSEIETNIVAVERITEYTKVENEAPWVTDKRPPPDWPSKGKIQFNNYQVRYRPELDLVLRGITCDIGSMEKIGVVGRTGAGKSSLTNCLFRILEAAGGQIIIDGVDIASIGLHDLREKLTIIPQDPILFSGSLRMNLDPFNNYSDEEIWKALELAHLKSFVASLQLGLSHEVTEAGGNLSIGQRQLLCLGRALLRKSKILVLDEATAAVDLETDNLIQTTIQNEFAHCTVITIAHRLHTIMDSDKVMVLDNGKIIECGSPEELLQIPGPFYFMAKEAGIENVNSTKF

O[As](O)O [TRIHYDROXYARSENITE(III)]
Activity [1]: inducer [+] | Activity [2]: inducer [+]

CO[C@H]1/C=C/O[C@@]2(C)Oc3c(C)c(O)c4c(O)c(c(/C=N/N5CCN(C)CC5)c(O)c4c3C2=O)NC(=O)/C(C)=C\C=C\[C@H](C)[C@H](O)[C@@H](C)[C@@H](O)[C@@H](C)[C@H](OC(C)=O)[C@@H]1C [RIFAMPIN]
Activity [1]: inducer [+] | Activity [2]: inducer [+]

CC(C)(C)c1cc(O)ccc1O [E319]
Activity [1]: inducer [+] | Activity [2]: inducer [+]

Clc1ccccc1C(c1ccccc1)(c1ccccc1)n1ccnc1 [CLOTRIMAZOLE]
Activity [1]: inducer [+] | Activity [2]: inducer [+]

From ChEMBL document CHEMBL2074117, “Influence of redox-active compounds and PXR-activators on human MRP1 and MRP2 gene expression” (Toxicology, 2002)
